For data set [1], the target named is T1, cloned human kappa receptor (Homo sapiens, UniProt P41145). As to the kind of experiment: biochemical. It counts as binding. The note with it: for inhibition at 1 µM: read-out: 3H-Diprenorphin, % @ 1 uM.
Data set [2] has as its target T1, cloned human kappa receptor. The data set is described as follows: [3H]U69593 (agonist) binding to the cloned human kappa receptor. As to conditions: Ki, nM 3H-U-69,593.
Data set [3] has as its system formalin-induced flinching. As to the kind of experiment: animal or person. It is filed as in vivo, male Sprague-Dawley rats. As to conditions: rat, in vivo.

Molecules are shown by their SMILES. Where “and” joins values, the source holds several entries; their conditions need not be identical. Equal values may be shown once. Where a name gives a salt, the structure may show the parent alone.

T1 sequence (P41145 whole entry): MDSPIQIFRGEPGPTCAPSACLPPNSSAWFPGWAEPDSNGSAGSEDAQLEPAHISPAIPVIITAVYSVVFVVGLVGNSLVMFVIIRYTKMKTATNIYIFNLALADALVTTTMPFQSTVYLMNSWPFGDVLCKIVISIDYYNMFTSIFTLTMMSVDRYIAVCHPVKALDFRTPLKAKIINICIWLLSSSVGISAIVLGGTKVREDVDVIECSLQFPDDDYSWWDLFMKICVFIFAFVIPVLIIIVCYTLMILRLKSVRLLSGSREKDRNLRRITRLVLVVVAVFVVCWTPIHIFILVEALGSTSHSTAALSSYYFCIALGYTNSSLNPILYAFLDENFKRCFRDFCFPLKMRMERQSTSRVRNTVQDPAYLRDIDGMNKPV

As for `Cl.O=C(Cc1ccc(Cl)c(Cl)c1)N1CCN(Cc2ccccc2)C[C@H]1CN1CCCC1` [(R-1), (R)-4-(Phenylmethyl)-1-[(3,4-dichlorophenyl)acetyl]-2-[(1-pyrrolidinyl)methyl]piperazine hydrochloride], the melting point lay within 168 to 170 °C. For the same molecule, in data set [1] (Ki, nM 3H-Diprenorphin), the Ki is 57 nM and 38 nM. Affinity in data set [2] was put at a Ki of 9.3 nM. Besides, in data set [3], the “Late Phase Formalin, % @ 300; i.paw” value was 53% @ 300.

On to `CS(=O)(=O)N1CCN(C(=O)Cc2ccc(Cl)c(Cl)c2)[C@H](CN2CCCC2)C1.Cl` [(R-3a), (R)-4-Methanesulfonyl-1-[(3,4-dichlorophenyl)acetyl]-2-[(1-pyrrolidinyl)methyl]-piperazine hydrochloride], for which the melting point lay in the range of 130 to 132 °C. Moreover, the Ki in data set [1] (Ki, nM 3H-Diprenorphin) is 0.2 nM and 1.3 nM. Also, the Ki in data set [2] is 0.19 nM and 0.5 nM. Further, in data set [3], the “Late Phase Formalin A50 (mg); i.paw” value is 14 (5.6-29) mg.

As for `Cl.Cl.O=C(O)CN1CCN(C(=O)Cc2ccc(Cl)c(Cl)c2)[C@H](CN2CCCC2)C1` [(R-3c), (R)-4-[(3,4-dichlorophenyl)acetyl]-3-[(1-pyrrolidinyl)methyl]-1-piperazineacetic acid dihydrochloride], the melting point was 190 °C (dec.). Also, in data set [1], the inhibition at 1 µM was 62%. Also, the inhibition constant (Ki) in data set [2] is 23 nM and 21 nM. The “Late Phase Formalin, % @ 300; i.paw” value in data set [3] was 26% @ 300.

In turn, `CC(=O)N1CCN(C(=O)Cc2ccc(Cl)c(Cl)c2)[C@H](CN2CCCC2)C1.Cl` [(R-3f), (R)-4-Acetyl-1-[(3,4-dichlorophenyl)acetyl]-2-[(1-pyrrolidinyl)methyl]-piperazine hydrochloride] gave a melting point of 153 to 155 °C. For the same molecule, the Ki in data set [1] (Ki, nM 3H-Diprenorphin) is 4.2 nM and 1.4 nM. Also, the inhibition constant Ki in data set [2] is 0.11 nM and 0.14 nM. Also, the “Late Phase Formalin, % @ 300; i.paw” value in data set [3] amounted to 95% @ 300.

`CCOP(=O)(OCC)N1CCN(C(=O)Cc2ccc(Cl)c(Cl)c2)[C@H](CN2CCCC2)C1` [(R-3g), (R)-4-(Diethoxyphosphonate)-1-[(3,4-dichlorophenyl)acetyl]-2-[(1-pyrolidinyl)methyl]-piperazine hydrochloride]: the Ki is 99 nM and 33 nM in data set [1] (Ki, nM 3H-Diprenorphin); 1.3 nM and 1.4 nM in data set [2]. In addition, the “Late Phase Formalin, % @ 300; i.paw” value in data set [3] was found to be 54% @ 300.

In the case of `O=C(Cc1ccc(Cl)c(Cl)c1)N1CCN(C(=O)C(F)(F)F)C[C@H]1CN1CCCC1` [(R-3h), (R)-4-Trifluoroacetyl-1-(3,4-dichlorophenyl)acetyl]-2-[(1-pyrrolidinyl)methyl]-piperazine hydrochloride], the Ki is 6.9 nM and 1.8 nM in data set [1] (Ki, nM 3H-Diprenorphin); 0.26 nM and 0.16 nM in data set [2]. The “Late Phase Formalin, % @ 300; i.paw” value in data set [3] was 94% @ 300.

`Cl.NC(=O)N1CCN(C(=O)Cc2ccc(Cl)c(Cl)c2)[C@H](CN2CCCC2)C1` [(R-3i), (R)-4-[(3,4-Dichlorophenyl)acetyl]-3-[(1-pyrrolidinyl)methyl]-1-piperazinecarboxamide hydrochloride]: the inhibition constant (Ki) in data set [1] (Ki, nM 3H-Diprenorphin) is 56 nM and 29 nM; in data set [2] it was 2.9 nM. In data set [3], the “Late Phase Formalin, % @ 300; i.paw” value was found to be 68% @ 300.

With `Cl.O=CN1CCN(C(=O)Cc2ccc(Cl)c(Cl)c2)[C@H](CN2CCCC2)C1` [(R-3j), (R)-4-[(3,4-Dichlorophenyl)acetyl]-3-[(1-pyrrolidinyl)methyl]-1-piperazinecarboxaldehyde hydrochloride], the melting point was 126 °C (dec.). The inhibition at 1 µM in data set [1] was found to be 96%. Affinity in data set [2] was put at a Ki of 0.4 nM. Besides, the “Late Phase Formalin, % @ 300; i.paw” value in data set [3] came to 65% @ 300.

Regarding `Cc1ccc(S(=O)(=O)N2CCN(C(=O)Cc3ccc(Cl)c(Cl)c3)[C@H](CN3CCCC3)C2)cc1` [(R-3l), (R)-4-(4-Methyphenylsulfonyl)-1-[(3,4-dichlorophenyl)acetyl]-2-[(1-Pyrrolidinyl)methyl]-piperazine hydrochloride], the inhibition constant Ki was determined as 120 nM in data set [1] (Table I, read-out: Ki, nM 3H-Diprenorphin) and 6.2 nM in data set [2]. Moreover, the “Late Phase Formalin, % @ 300; i.paw” value in data set [3] came to 24% @ 300.

For `O=C(Cc1ccc(C(F)(F)F)cc1)N1CCN(Cc2ccccc2)CC1CN1CCCC1` (centres unmarked) [(R.S-11)], the inhibition constant (Ki) is 2.2 nM and 2.4 nM in data set [1] (Ki, nM 3H-Diprenorphin); 0.39 nM and 0.57 nM in data set [2]. The “Late Phase Formalin, % @ 300; i.paw” value in data set [3] is listed as 92% @ 300.

Regarding `COC(=O)N1CCN(C(=O)Cc2ccc(Cl)c(Cl)c2)C(CN2CCCC2)C1` (centres unmarked) [GR 89696, reference compound], the Ki in data set [1] (Ki, nM 3H-Diprenorphin) was 0.095 nM and 0.1 nM; in data set [2] it was 1.6 nM and 1.5 nM. The “Late Phase Formalin A50 (mg); i.paw” value in data set [3] is on record as 0.35(0.20-0.62) mg.

As a reminder, the Ki is the dissociation constant of the complex between target and ligand, obtained from inhibition or displacement. What is called melting point is the temperature, or range, at which the solid turns liquid.
